This assay has as its target T1, Human Factor D (Homo sapiens, UniProt P00746).
T1 construct: purified from human serum; purchased Complement Technology, Inc; host or cells: human serum (natural protein, not recombinant)
Description: Human Factor D Assay. The assay is classed as biochemical. To be noted: Table 3; Human Factor D 80 nM, substrate Z-L-Lys-SBzl; read-out: (IC50 (Stars)). The method, then:
Example 8. Human Factor D Assay
Human Factor D (purified from human serum, Complement Technology, Inc.) at 80 nM final concentration is incubated with test compound at various concentrations for 5 minutes at room temperature in 50 mM Tris, 1M NaCl, pH 7.5. A synthetic substrate Z-L-Lys-SBzl and DTNB (Ellman's reagent) are added to final concentrations of 100 μM each. Absorbance at 405 nm (A405) is recorded at 30 second intervals for 30 minutes using a microplate spectrophotometer. IC50 values are calculated by nonlinear regression of complement Factor D reaction rates as a function of test compound concentration.

One may read the IC50 as the point on the concentration scale where inhibition reaches its midpoint.

T1 sequence (P00746 26-253): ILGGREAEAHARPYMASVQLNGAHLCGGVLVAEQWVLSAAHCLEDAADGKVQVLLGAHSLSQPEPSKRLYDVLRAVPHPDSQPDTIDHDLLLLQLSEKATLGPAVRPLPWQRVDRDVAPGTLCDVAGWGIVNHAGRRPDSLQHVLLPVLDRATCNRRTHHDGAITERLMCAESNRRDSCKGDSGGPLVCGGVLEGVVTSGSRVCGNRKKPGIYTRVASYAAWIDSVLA

For the molecule `CC(=O)c1cn(CC(=O)N2C[C@H](F)C[C@H]2C(=O)NCCc2ccccc2)c2ccc(OCS(=O)(=O)NC(C)(C)C)cc12` [Compound 132, (2S,4R)-1-(2-(3-Acetyl-5-((N-(tert-butyl)sulfamoyl)methoxy)-1H-indol-1-yl)acetyl)-4-fluoro-N-phenethylpyrrolidine-2-carboxamide], the IC50 is below 1000 nM.

For the molecule `CC(=O)c1cn(CC(=O)N2C[C@H](F)C[C@H]2C(=O)NCCc2ccccc2)c2ccc(OCS(N)(=O)=O)cc12` [Compound 133, (2S,4R)-1-(2-(3-Acetyl-5-(sulfamoylmethoxy)-1H-indol-1-yl)acetyl)-4-fluoro-N-phenethylpyrrolidine-2-carboxamide], the IC50 lay within 1000 to 10000 nM.

On to `CC(=O)c1cn(CC(=O)N2C[C@H](F)C[C@H]2C(=O)NCCCc2ccccc2)c2ccc(OCS(=O)(=O)NC(C)(C)C)cc12` [Compound 135, (2S,4R)-1-(2-(3-Acetyl-5-((N-(tert-butyl)sulfamoyl)methoxy)-1H-indol-1-yl)acetyl)-4-fluoro-N-(3-phenylpropyl)pyrrolidine-2-carboxamide], for which the IC50 is below 1000 nM.

`CC(=O)c1cn(CC(=O)N2C[C@H](F)C[C@H]2C(=O)NCCCc2ccccc2)c2ccc(OCS(N)(=O)=O)cc12` [Compound 136, (2S,4R)-1-(2-(3-Acetyl-5-(sulfamoylmethoxy)-1H-indol-1-yl)acetyl)-4-fluoro-N-(3-phenylpropyl)pyrrolidine-2-carboxamide]: the concentration for half-maximal inhibition (IC50) was below 1000 nM.

As for `CC(=O)c1cn(CC(=O)N2C[C@H](F)C[C@H]2C(=O)NCCCCc2ccccc2)c2ccc(OCS(=O)(=O)NC(C)(C)C)cc12` [Compound 138, (2S,4R)-1-(2-(3-Acetyl-5-((N-(tert-butyl)sulfamoyl)methoxy)-1H-indol-1-yl)acetyl)-4-fluoro-N-(4-phenylbutyl)pyrrolidine-2-carboxamide], the IC50 is below 1000 nM.

On to `CC(=O)c1cn(CC(=O)N2C[C@H](F)C[C@H]2C(=O)NCCCCc2ccccc2)c2ccc(OCS(N)(=O)=O)cc12` [Compound 139, (2S,4R)-1-(2-(3-Acetyl-5-(sulfamoylmethoxy)-1H-indol-1-yl)acetyl)-4-fluoro-N-(4-phenylbutyl)pyrrolidine-2-carboxamide], for which the IC50 was in the range of 1000 to 10000 nM.

As to `CC(=O)c1cn(CC(=O)N2C[C@H](F)C[C@H]2C(=O)NCc2cccc(Cl)c2F)c2ccc(OCS(=O)(=O)NC(C)(C)C)cc12` [Compound 140, (2S,4R)-1-(2-(3-Acetyl-5-((N-(tert-butyl)sulfamoyl)methoxy)-1H-indol-1-yl)acetyl)-N-(3-chloro-2-fluorobenzyl)-4-fluoropyrrolidine-2-carboxamide], the IC50 is below 1000 nM.

Turning to `CC(=O)c1cn(CC(=O)N2C[C@H](F)C[C@H]2C(=O)NCc2cccc(Cl)c2F)c2ccc(OCS(N)(=O)=O)cc12` [Compound 141, (2S,4R)-1-(2-(3-Acetyl-5-(sulfamoylmethoxy)-1H-indol-1-yl)acetyl)-N-(3-chloro-2-fluorobenzyl)-4-fluoropyrrolidine-2-carboxamide], the IC50 was below 1000 nM.

Take `CCOP(=O)(COc1ccc2c(c1)c(C(C)=O)cn2CC(=O)N1C[C@H](F)C[C@H]1C(=O)NCc1ccccc1)OCC` [Compound 144, Diethyl (((3-acetyl-1-(2-((2S,4R)-2-(benzylcarbamoyl)-4-fluoropyrrolidin-1-yl)-2-oxoethyl)-1H-indol-5-yl)oxy)methyl)phosphonate]: the IC50 is below 1000 nM.

Turning to `CC(=O)c1cn(CC(=O)N2C[C@H](F)C[C@H]2C(=O)NCc2ccccc2)c2ccc(OCP(=O)(O)O)cc12` [Compound 145, (((3-Acetyl-1-(2-((2S,4R)-2-(benzylcarbamoyl)-4-fluoropyrrolidin-1-yl)-2-oxoethyl)-1H-indol-5-yl)oxy)methyl)phosphonic acid], the IC50 was in the range of 1000 to 10000 nM.

For the molecule `CCOP(=O)(COc1ccc2c(c1)c(C(C)=O)cn2CC(=O)N1C[C@H](F)C[C@H]1C(=O)NCCc1ccccc1)OCC` [Compound 146, Diethyl (((3-acetyl-1-(2-((2S,4R)-4-fluoro-2-(phenethylcarbamoyl)pyrrolidin-1-yl)-2-oxoethyl)-1H-indol-5-yl)oxy)methyl)phosphonate], the IC50 was below 1000 nM.

On to `CC(=O)c1cn(CC(=O)N2C[C@H](F)C[C@H]2C(=O)NCCc2ccccc2)c2ccc(OCP(=O)(O)O)cc12` [Compound 147, (((3-Acetyl-1-(2-((2S,4R)-4-fluoro-2-(phenethylcarbamoyl)pyrrolidin-1-yl)-2-oxoethyl)-1H-indol-5-yl)oxy)methyl)phosphonic acid], for which the IC50 is above 10000 nM.

Turning to `CCOP(=O)(COc1ccc2c(c1)c(C(C)=O)cn2CC(=O)N1C[C@H](F)C[C@H]1C(=O)NCCCc1ccccc1)OCC` [Compound 148, diethyl (((3-acetyl-1-(2-((2S,4R)-4-fluoro-2-((3-phenylpropyl)carbamoyl)pyrrolidin-1-yl)-2-oxoethyl)-1H-indol-5-yl)oxy)methyl)phosphonate], the IC50 is below 1000 nM.

In the case of `CC(=O)c1cn(CC(=O)N2C[C@H](F)C[C@H]2C(=O)NCCCc2ccccc2)c2ccc(OCP(=O)(O)O)cc12` [Compound 149, (((3-Acetyl-1-(2-((2S,4R)-4-fluoro-2-((3-phenylpropyl)carbamoyl)pyrrolidin-1-yl)-2-oxoethyl)-1H-indol-5-yl)oxy)methyl)phosphonic acid], the IC50 was above 10000 nM.

As for `CCOP(=O)(COc1ccc2c(c1)c(C(C)=O)cn2CC(=O)N1C[C@H](F)C[C@H]1C(=O)NCCCCc1ccccc1)OCC` [Compound 150, Diethyl (((3-acetyl-1-(2-((2S,4R)-4-fluoro-2-((4-phenylbutyl)carbamoyl)pyrrolidin-1-yl)-2-oxoethyl)-1H-indol-5-yl)oxy)methyl)phosphonate], the IC50 is below 1000 nM.

Take `CC(=O)c1cn(CC(=O)N2C[C@H](F)C[C@H]2C(=O)NCCCCc2ccccc2)c2ccc(OCP(=O)(O)O)cc12` [Compound 151, (((3-Acetyl-1-(2-((2S,4R)-4-fluoro-2-((4-phenylbutyl)carbamoyl)pyrrolidin-1-yl)-2-oxoethyl)-1H-indol-5-yl)oxy)methyl)phosphonic acid]: the IC50 is above 10000 nM.

`CCOP(=O)(COc1ccc2c(c1)c(C(C)=O)cn2CC(=O)N1C[C@H](F)C[C@H]1CCNS(=O)(=O)c1ccccc1)OCC` [Compound 158, Diethyl (((3-acetyl-1-(2-((2R,4R)-4-fluoro-2-(2-(phenylsulfonamido)ethyl)pyrrolidin-1-yl)-2-oxoethyl)-1H-indol-5-yl)oxy)methyl)phosphonate]: the IC50 is 1000 to 10000 nM.

On to `CC(=O)c1cn(CC(=O)N2C[C@H](F)C[C@H]2CCNS(=O)(=O)c2ccccc2)c2ccc(OCP(=O)(O)O)cc12` [Compound 159, (((3-Acetyl-1-(2-((2R,4R)-4-fluoro-2-(2-(phenylsulfonamido)ethyl)pyrrolidin-1-yl)-2-oxoethyl)-1H-indol-5-yl)oxy)methyl)phosphonic acid], for which the IC50 was above 10000 nM.

Take `CCOP(=O)(COc1ccc2c(c1)c(C(C)=O)cn2CC(=O)N1CC[C@H]1C(=O)Nc1cccc(C)n1)OCC` [Compound 163, Diethyl (S)-(((3-acetyl-1-(2-(2-((6-methylpyridin-2-yl)carbamoyl)azetidin-1-yl)-2-oxoethyl)-1H-indol-5-yl)oxy)methyl)phosphonate]: the IC50 was above 10000 nM.

Consider `CC(=O)c1cn(CC(=O)N2C[C@H](F)C[C@H]2C(=O)Nc2cncc(Br)n2)c2ccc(Oc3ncc(F)cn3)cc12` [Compound 164, (2S,4R)-1-(2-(3-Acetyl-5-((5-fluoropyrimidin-2-yl)oxy)-1H-indol-1-yl)acetyl)-N-(6-bromopyrazin-2-yl)-4-fluoropyrrolidine-2-carboxamide], for which the 50% inhibitory concentration (IC50) was below 1000 nM.

In the case of `CC(=O)c1cn(CC(=O)N2[C@@H]3C[C@@H]3C[C@H]2C(=O)Nc2cncc(Br)n2)c2ccc(Oc3ncc(F)cn3)cc12` [Compound 165, (1R,3S,5R)-2-(2-(3-Acetyl-5-((5-fluoropyrimidin-2-yl)oxy)-1H-indol-1-yl)acetyl)-N-(6-bromopyrazin-2-yl)-2-azabicyclo[3.1.0]hexane-3-carboxamide], the IC50 was below 1000 nM.

With `CC(=O)c1cn(CC(=O)N2C[C@H](F)C[C@H]2C(=O)Nc2cncc(Br)n2)c2ccc(Oc3ncc(C)cn3)cc12` [Compound 166, (2S,4R)-1-(2-(3-Acetyl-5-((5-methylpyrimidin-2-yl)oxy)-1H-indol-1-yl)acetyl)-N-(6-bromopyrazin-2-yl)-4-fluoropyrrolidine-2-carboxamide], the IC50 was below 1000 nM.

For the molecule `CC(=O)c1nn(CC(=O)N2C[C@H](F)C[C@H]2C(=O)Nc2cncc(Br)n2)c2ccc(Oc3ncc(C)cn3)cc12` [Compound 167, (2S,4R)-1-(2-(3-Acetyl-5-((5-methylpyrimidin-2-yl)oxy)-1H-indazol-1-yl)acetyl)-N-(6-bromopyrazin-2-yl)-4-fluoropyrrolidine-2-carboxamide], the IC50 was below 1000 nM.

Turning to `CC(=O)c1nn(CC(=O)N2C[C@H](F)C[C@H]2C(=O)Nc2cncc(Br)n2)c2ccc(Oc3nccc(C)n3)cc12` [Compound 168, (2S,4R)-1-(2-(3-Acetyl-5-((4-methylpyrimidin-2-yl)oxy)-1H-indazol-1-yl)acetyl)-N-(6-bromopyrazin-2-yl)-4-fluoropyrrolidine-2-carboxamide], the IC50 was below 1000 nM.

For `CC(=O)c1nn(CC(=O)N2C[C@H](F)C[C@H]2C(=O)Nc2cccc(Br)n2)c2ccc(Oc3ncc(C)cn3)cc12` [Compound 169, (2S,4R)-1-(2-(3-Acetyl-5-((5-methylpyrimidin-2-yl)oxy)-1H-indazol-1-yl)acetyl)-N-(6-bromopyridin-2-yl)-4-fluoropyrrolidine-2-carboxamide], the IC50 was below 1000 nM.

The values above are taken from patent US10385097B2, “Ether compounds for treatment of medical disorders” (Achillion Pharmaceuticals, Inc., priority 2015, dated 2019).
